Test results: US6924145B1, “Selection method” (Danisco A/S, priority 1998, dated 2005)

What was measured:
[1] = system: pea hypocotyl explants; assay: Toxicity of galactose to pea hypocotyl explants; type: cell-based, Pisum sativum; settings: after 5 weeks; versus control medium with 20 g/l sucrose (no galactose)
Procedure: In order to be useful for selection, the selective component (otherwise called selective agent) should not be able to sustain significant growth and preferably have adverse/toxic effects to the non-transformed cells/tissues. To assess the applicability of galactose selection following transformation, a number of plant species representing a range of different botanical families were tested for sensitivity to galactose, using explants which may be suitable for transformation experiments. Hypocotyl explants useful for the transformation of pea were prepared by excising the hypocotyl from 7 d old seedlings and transferred to a medium, according to Nielsen er al. (1991. Physiol. Plant 82: 99-102), containing various concentrations of sucrose and galactose. After 5 weeks, the growth of the explants were evaluated.

[2] = system: sugar beet cotyledonary explants; assay: Toxicity of galactose to sugar beet cotyledonary explants; type: cell-based, Beta vulgaris; settings: 20 g/l sucrose and various concentrations galactose; 4-5 weeks
Procedure: In order to be useful for selection, the selective component (otherwise called selective agent) should not be able to sustain significant growth and preferably have adverse/toxic effects to the non-transformed cells/tissues. To assess the applicability of galactose selection following transformation, a number of plant species representing a range of different botanical families were tested for sensitivity to galactose, using explants which may be suitable for transformation experiments. Cotyledonary explants useful for the transformation of sugar beet were prepared by excising the cotyledons from […] seedlings (Joersbo er al. 1998. Mol. Breeding 4: 111-117). The leaves were transferred to modified MS-medium (Murashiee and Skoog 1962. Physiol. Plant. 15: 473-497) containing 20 g/l sucrose and various concentrations galactose.

[3] = system: oil seed rape hypocotyl explants; assay: Toxicity of galactose to oil seed rape hypocotyl explants (shoot regeneration); type: cell-based, Brassica napus
Procedure: (§1) In order to be useful for selection, the selective component (otherwise called selective agent) should not be able to sustain significant growth and preferably have adverse/toxic effects to the non-transformed cells/tissues. To assess the applicability of galactose selection following transformation, a number of plant species representing a range of different botanical families were tested for sensitivity to galactose, using explants which may be suitable for transformation experiments.
Hypocotyl explants useful for the transformation of oil seed rape were prepared using a protocol modified after Radke et al. (1988. Theor. Appl. Genet. 78: 161-168). Hypocotyls of 5 d old seedlings were cut into 1 cm segments and transferred to modified MS-medium (Murashige and Skoog 1962. Physiol. Plant. 15: 473-497) containing sucrose and galactose according to the experiment. After 3-4 weeks, shoots were harvested and the explants were transferred to fresh medium of the same composition. This was repeated for 3 more harvests and the total number of regenerated shoots formed on each medium was calculated (see table below).

[4] = system: potato leaf explants; assay: Toxicity of galactose to potato leaf explants (shoot regeneration); type: cell-based, Solanum tuberosum
Procedure: In order to be useful for selection, the selective component (otherwise called selective agent) should not be able to sustain significant growth and preferably have adverse/toxic effects to the non-transformed cells/tissues. To assess the applicability of galactose selection following transformation, a number of plant species representing a range of different botanical families were tested for sensitivity to galactose, using explants which may be suitable for transformation experiments. Young leaves useful for the transformation of potato were prepared from leaves of 28 d old in vitro shoot cultures. The leaves were cut off avoiding the meristem at the leaf corner and were cut twice across the […]. The explants were then put on modified MS-medium (Murashige and Skoog 1962. Physiol. Plant. 15: 473-497) containing various concentrations of sucrose and galactose. After 3 weeks, shoots were harvested and the explants were transferred to fresh medium of the same composition. This was repeated for 2 more harvests and the total number of explants with regenerated shoots formed on each medium was calculated (see table below).

[5] = system: oil seed rape hypocotyl explants inoculated with Agrobacterium tumefaciens EHA101; assay: Selection of transgenic oil seed rape on galactose containing media; type: cell-based, Brassica napus; settings: galactose 2.5 g/l, sucrose 10 g/l
Procedure: Hypocotyl explants of oil seed rape were prepared using a protocol modified according to Radke et al. (1988. Theor. Appl. Genet. 78: 161-168). Hypocotyls of 5 d old seedlings were cut into 1 cm segments and inoculated with a suspension of Agrobacterium tumefaciens strain EHA101 (OD660=0.1-0.5, prepared according to standard procedures). After inoculation, the explants were dried carefully on filterpaper before co-cultivation.
(§2) After co-culture, the explants were transferred to selection medium consisting of modified MS-medium (Murashige and Skoog 1962. Physiol. Plant. 15: 473-497) supplemented with 500 mg/l carbenicillin and various concentrations of sucrose and galactose. After 7-8 weeks, shoots were harvested and transgenicity was evaluated by subjecting the harvested shoots to the assay for β-glucuronidase activity (Jefferson et al. 1987. Plant Mol. Biol. Rep. 5: 387-405), a marker enzyme encoded by a gene placed adjacent the selective gene on the T-DNA of the transformation vector (FIG. 3).

[6] = system: tissues of maize; settings: Roberts et al.; cited from earlier work
[7] = system: potato explants transformed with pVIC-galT; assay: Selection of transgenic potato shoots (galT vector) on galactose containing media; type: cell-based, Solanum tuberosum; settings: for No. of transgenic shoots: GUS assay
Procedure: Young leaves useful for the transformation of potato were prepared from leaves of 28 d old in vitro shoot cultures. The leaves were cut off avoiding the meristem at the leaf corner and were cut twice across the midvein. The explants were inoculated for 30 min. with a suspension of Agrobacterium tumefaciens strain EHA101 (OD660=0.5) harbouring the transformation vector described above. After inoculation, the explants were dried carefully on filterpaper and left for co-cultivation for 3 d in dim light.
as §2, with “of” for “of modified”, “3 and 6” for “7-8”, “4).” for “3).”

[8] = system: sunflower explants; assay: Toxicity of galactose to sunflower apical explants (fresh weight); type: cell-based, Helianthus annuus; settings: 20 g/l sucrose, 4-5 weeks, above controls on medium devoid of carbohydrate
Procedure: as §1
The preparation of apical explants useful for the transformation of sunflower were modified according to Knittel et al. (1994. Plant Cell Rep. 14: 81-86). The seed coats of 2 d old seedlings were gently removed and the cotyledons, the emerging root and the top of the apex were removed. The remaining part of the apex was cut off and divided into two halves and cultivated according to Knittel et al., with 20 g/l sucrose in the medium and galactose according to the experiment. After 4-5 weeks of culture at a 16 h/8 h day/night regime, growth was monitored by determining the fresh weight of the explants (above controls grown on a medium devoid of any carbohydrate source).

[9] = system: tissues of barley; settings: Roberts et al.; cited from earlier work
[10] = system: immature wheat embryos; assay: Toxicity of galactose to immature wheat embryos (germination and shoot growth); type: cell-based, Triticum aestivum; settings: 20 g/l sucrose, relative to control medium (no galactose) = 100
Procedure: In order to be useful for selection, the selective component (otherwise called selective agent) should not be able to sustain significant growth and preferably have adverse/toxic effects to the non-transformed cells/tissues. To assess the applicability of galactose selection following transformation, a number of plant species representing a range of different botanical families were tested for sensitivity to galactose, using explants which may be suitable for transformation experiments. As an example of a monocotyledonous species, wheat was studied. Immature wheat embryos (2-3 weeks old, a total of 161) were carefully removed from the seed and were cultivated on Gamborg B5 medium (Gamborg et al. 1968. Exp. Cell Res. 50: 151-158) supplemented with 9.0 g/l Bacto agar. 20 g/l sucrose and galactose according to the experiment. The embryos were cultivated in the dark for about 10 days where germinated embryos were transferred to fresh medium of the same composition and cultivated in a 16 h/8 h day/night regime for 4-5 weeks. The effect of galactose was evaluated by the number of germinated embryos and by measuring the length of the leaf on these embryos, relative to the control medium (no galactose).

[11] = system: Petunia; assay: Sensitivity of Petunia to galactose; type: cell-based
Procedure: as §1

[12] = 2.5 g/l galactose, sucrose 0 g/l
[13] = 2.5 g/l galactose, sucrose 5.0 g/l
[14] = 2.5 g/l galactose, sucrose 10 g/l
[15] = 2.5 g/l galactose, sucrose 20 g/l
[16] = 5.0 g/l galactose, sucrose 0 g/l
[17] = 5.0 g/l galactose, sucrose 5.0 g/l
[18] = 5.0 g/l galactose, sucrose 10 g/l
[19] = 5.0 g/l galactose, sucrose 20 g/l
[20] = galactose 1.25 g/l, sucrose 10 g/l
[21] = galactose 1.25 g/l, sucrose 15 g/l
[22] = galactose 1.25 g/l, sucrose 20 g/l
[23] = galactose 2.5 g/l, sucrose 10 g/l
[24] = galactose 2.5 g/l, sucrose 15 g/l
[25] = galactose 2.5 g/l, sucrose 20 g/l

OC[C@H]1OC(O)[C@H](O)[C@@H](O)[C@H]1O (mixture of isomers) [galactose]
growth of the explants [1]: unable to sustain any growth | fresh weight of the explants [2]: significant reduction | number of shoots [2]: significant reduction | total number of regenerated shoots [3, 12]: 0 | total number of regenerated shoots [3, 13]: 1 | total number of regenerated shoots [3, 14]: 7 | total number of regenerated shoots [3, 15]: 26 | total number of regenerated shoots [3, 16]: 0 | total number of regenerated shoots [3, 17]: 0 | total number of regenerated shoots [3, 18]: 3 | total number of regenerated shoots [3, 19]: 22 | total number of explants with regenerated shoots [4, 12]: 1 | total number of explants with regenerated shoots [4, 13]: 0 | total number of explants with regenerated shoots [4, 14]: 0 | total number of explants with regenerated shoots [4, 15]: 7 | total number of explants with regenerated shoots [4, 16]: 0 | total number of explants with regenerated shoots [4, 17]: 0 | total number of explants with regenerated shoots [4, 18]: 0 | total number of explants with regenerated shoots [4, 19]: 0 | Transformation frequency (%) [5]: 1.0% | No. of transgenic shoots ([5]; shoots more than 50% β-glucuronidase-positive, 7-8 weeks): 4 | toxicity to tissues of maize [6]: toxic | Transformation frequency (%) [7, 20]: 6.0% | No. of transgenic shoots [7, 20]: 3 | Transformation frequency (%) [7, 21]: 14.0% | No. of transgenic shoots [7, 21]: 7 | Transformation frequency (%) [7, 22]: 6.0% | No. of transgenic shoots [7, 22]: 3 | Transformation frequency (%) [7, 23]: 2.0% | No. of transgenic shoots [7, 23]: 1 | Transformation frequency (%) [7, 24]: 0% | No. of transgenic shoots [7, 24]: 0 | Transformation frequency (%) [7, 25]: 8.0% | No. of transgenic shoots [7, 25]: 4 | Fresh weight ([8]; galactose 5.0 g/l): 28 mg/explant | Fresh weight ([8]; galactose 7.5 g/l): 0 mg/explant | Fresh weight ([8]; galactose 10 g/l): 0 mg/explant | Fresh weight ([8]; galactose 15 g/l): 0 mg/explant | toxicity to tissues of barley [9]: toxic | Average shoot length ([10]; galactose 2.5 g/l): 89 | Germination of embryos ([10]; galactose 2.5 g/l): 43 | Average shoot length ([10]; galactose 5.0 g/l): 67 | Germination of embryos ([10]; galactose 5.0 g/l): 29 | Average shoot length ([10]; galactose 7.5 g/l): 0 | Germination of embryos ([10]; galactose 7.5 g/l): 0 | Average shoot length ([10]; galactose 10 g/l): 33 | Germination of embryos ([10]; galactose 10 g/l): 14 | Average shoot length ([10]; galactose 15 g/l): 0 | Germination of embryos ([10]; galactose 15 g/l): 0 | sensitivity to galactose (level of toxicity) [11]: fairly tolerant | ability of galactose to sustain growth ([11]; stated for all tested plant species incl. Petunia): unable to sustain growth
